Measurements taken from patent publication US20260166170A1, “ANTIBODY DRUG CONJUGATE COMPRISING NMT INHIBITOR AND ITS USE” (MyricX Pharma Limited, priority 2022, published 2026).

Assays:
[1] = tested on: BT474 breast cancer cells; test: Orthotopic breast cancer xenograft model; format: in vivo, NOD/SCID mice; conditions: trastuzumab or ADC Example 1 2.5 or 5 mg/kg; NMT inhibitor 1 2 mg/kg
Method: During the study, body weights were measured three times weekly for all animals. Animals were given Diet Gel for the entire duration on the study.

LNCaP tumours = test: LNCaP prostate cancer xenograft model; format: in vivo, male NOD SCID mice; conditions: IV, Q7D (x3); for Tumour growth inhibition (TGI, %): day 28
From the text: Adjusted p value calculated by Kruskal-Wallis test and Dunn's multiple comparisons relative to vehicle control. […] C is the mean tumour volume of the control Group 1 mice on the measurement day and C0 is the mean tumour volume on Study Day 0.

[2] = tested on: VCaP human prostate cancer xenograft; test: VCaP prostate cancer xenograft model; format: in vivo, non-castrated male CB17/SCID mice
Method: The objective of this study was to evaluate preclinically the in vivo therapeutic efficacy of ADC Example 4 in the treatment of subcutaneous VCaP human prostate cancer xenograft model in non-castrated male CB17/SCID mice.
In this study, 144 mice were inoculated subcutaneously in the right front flank region with 1×10^7 viable VCaP tumour cells resuspended in 0.1 mL of PBS mixed with Matrigel (1:1) for tumour development on Study Day−20. 80 mice were assigned to 8 treatment groups when tumour volumes averaged ˜162.16 mm^3 on Study Day 0. Dosing commenced the following day and all animals were dosed intravenously with ADC Example 4, ifinatamab-deruxtecan (ifinatamab-Dxd) or unconjugated ifinatamab. All mice received two doses of test agent, on Study Day 1 and Study Day 8. The study was terminated on Study Day 30.

[3] = tested on: JIMT-1 human breast xenograft; test: JIMT-1 breast cancer xenograft model; format: in vivo
From the text: The study was terminated on the Study Day 60.

CNCc1cnc2ccc(-c3ccc(F)c(F)c3OCCc3c(C(O)C(C)(C)C)nn(C)c3C)cn12 (centres unmarked) [NMT inhibitor 1, 1-(4-(2-(2,3-difluoro-6-(3-((methylamino)methyl)imidazo[1,2-a]pyridin-6-yl)phenoxy)ethyl)-1,5-dimethyl-1H-pyrazol-3-yl)-2,2-dimethylpropan-1-ol]
body weights of mice compared to vehicle control [1]: decreased significantly

ifinatamab
LNCaP tumour volume compared to vehicle control (LNCaP tumours; 5 mg/kg): no significant effect
LNCaP tumour volume compared to vehicle control (LNCaP tumours; 10 mg/kg): no significant effect
Tumour growth inhibition (TGI, %) (LNCaP tumours; 10 mg/kg): 13.0%
tumour volumes compared to vehicle alone ([2]; 2.5 mg/kg): no significant difference
tumour volumes compared to vehicle alone ([2]; 5 mg/kg): no significant difference

sacituzumab
tumour volumes compared to vehicle alone ([3]; 2.5 mg/kg): no significant difference
tumour volumes compared to vehicle alone ([3]; 5 mg/kg): significant decrease

sacituzumab govitecan [reference compound]
tumour volumes compared to vehicle alone ([3]; 2.5 mg/kg): significant decrease
tumour volumes compared to vehicle alone ([3]; 5 mg/kg): significant decrease

B1: ifinatamab-DXd: ifinatamab-deruxtecan, comparator ADC (conjugate, chains of the INN, looked up)
VH: QVQLVQSGAEVKKPGSSVKVSCKASGYTFTNYVMHWVRQAPGQGLEWMGYINPYNDDVKYNEKFKGRVTITADESTSTAYMELSSLRSEDTAVYYCARWGYYGSPLYYFDYWGQGTLVTVSS
VL: EIVLTQSPATLSLSPGERATLSCRASSRLIYMHWYQQKPGQAPRPLIYATSNLASGIPARFSGSGSGTDFTLTISSLEPEDFAVYYCQQWNSNPPTFGQGTKVEIK
modifications: deruxtecan (DXd) payload
notes: ifinatamab-deruxtecan, comparator ADC
Day 28 tumour volume (mm^3, mean ± SEM) (LNCaP tumours; 5 mg/kg): 364.6 ± 51.7 mm^3
LNCaP tumour volume compared to vehicle control (LNCaP tumours; 5 mg/kg): slowed the growth of LNCaP tumours to a lesser extent
Tumour growth inhibition (TGI, %) (LNCaP tumours; 5 mg/kg): 58.8%
Day 28 tumour volume (mm^3, mean ± SEM) (LNCaP tumours; 10 mg/kg): 259.5 ± 50.3 mm^3
LNCaP tumour volume compared to vehicle control (LNCaP tumours; 10 mg/kg): significantly reduced the mean volume of LNCaP tumours
Tumour growth inhibition (TGI, %) (LNCaP tumours; 10 mg/kg): 75.0%
tumour volumes compared to vehicle alone ([2]; 2.5 mg/kg): no significant difference
ΔTGI (Study Day 17) ([2]; 2.5 mg/kg IV QW × 2 weeks): 5.24%
tumour volumes compared to vehicle alone ([2]; 5 mg/kg): significantly higher tumour volume
ΔTGI (Study Day 17) ([2]; 5 mg/kg IV QW × 2 weeks): 2.86%
